Publication PMC3778450, “Agonists and antagonists induce different palonosetron dissociation rates in 5-HT3A and 5-HT3AB receptors^” (Neuropharmacology, 2013)
Like-named read-outs stand apart in the source and are kept apart here.

What was measured:
[1] = target: T1, 5-HT3AB receptors (Homo sapiens, UniProt P46098); assay: Radioligand association and dissociation kinetics, HEK293 membranes; assay type: binding; design: dissociation k−1 (mean ± S.E.M): unit not given here
T1 construct: expressed in transfected cells; host or cells: HEK293
T1 sequence (P46098 24-478): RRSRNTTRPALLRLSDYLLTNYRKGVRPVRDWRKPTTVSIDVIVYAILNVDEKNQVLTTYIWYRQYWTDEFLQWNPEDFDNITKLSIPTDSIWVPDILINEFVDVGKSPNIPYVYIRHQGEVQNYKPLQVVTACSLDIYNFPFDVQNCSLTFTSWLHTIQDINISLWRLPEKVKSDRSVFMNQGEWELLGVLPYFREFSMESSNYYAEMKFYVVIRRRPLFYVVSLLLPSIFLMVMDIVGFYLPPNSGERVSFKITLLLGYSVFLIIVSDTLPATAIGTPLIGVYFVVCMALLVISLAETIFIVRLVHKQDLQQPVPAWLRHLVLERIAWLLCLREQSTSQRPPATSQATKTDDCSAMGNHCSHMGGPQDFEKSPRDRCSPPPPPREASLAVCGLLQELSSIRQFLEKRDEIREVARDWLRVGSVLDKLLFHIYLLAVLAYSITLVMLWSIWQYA
T1 sequence (O95264 22-441 partner): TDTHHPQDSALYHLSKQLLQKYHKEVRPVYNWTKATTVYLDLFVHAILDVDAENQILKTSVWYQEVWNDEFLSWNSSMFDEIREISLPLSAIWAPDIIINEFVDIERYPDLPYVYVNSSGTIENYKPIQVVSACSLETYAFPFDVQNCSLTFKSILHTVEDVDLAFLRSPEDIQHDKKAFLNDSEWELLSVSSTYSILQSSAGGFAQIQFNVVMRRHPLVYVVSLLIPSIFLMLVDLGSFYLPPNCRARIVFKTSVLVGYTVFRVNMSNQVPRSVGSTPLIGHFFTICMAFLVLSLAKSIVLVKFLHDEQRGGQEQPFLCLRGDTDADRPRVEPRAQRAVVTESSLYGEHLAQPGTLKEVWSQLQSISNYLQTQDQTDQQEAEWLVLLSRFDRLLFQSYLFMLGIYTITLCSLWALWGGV
Method: (§1) Human embryonic kidney (HEK) 293 cells were maintained on 90 mm tissue culture plates at 37 °C and 7% CO2 in a humidified atmosphere. They were cultured in DMEM:F12 (Dulbecco's Modified Eagle Medium/Nutrient Mix F12 (1:1)) with GlutaMAX™ I media containing 10% foetal calf serum and passaged when confluent. For radioligand binding studies cells in 90 mm dishes were transfected using PEI and incubated for 3–4 days before use. For functional studies cells were plated on 96 well plates, transfected using the Neon transfection system (Invitrogen) and incubated 1–2 days before assay. Mutagenesis reactions were performed using QuikChange (Agilent Technologies Inc., CA, USA) using human 5-HT3A or 5-HT3B receptor subunit cDNA (accession numbers: P46098 or O95264) in pcDNA3.1 (Invitrogen, Paisley, UK). Subunit numberings have been altered to the aligning residues in the mouse 5-HT3A receptor.
(§2) Briefly, transfected HEK293 cells were washed twice with phosphate buffered saline (PBS) at room temperature and scraped into 1 ml of ice-cold HEPES buffer (10 mM, pH 7.4) containing the following proteinase inhibitors (PI): 1 mM EDTA, 50 μg ml^−1 soybean trypsin inhibitor, 50 μg/ml bacitracin and 0.1 mM phenylmethylsulphonyl fluoride. […] Non-specific binding was determined using 10 μM quipazine. […] All samples were terminated by vacuum filtration using a Brandel cell harvester onto GF/B filters pre-soaked in 0.3% polyethyleneimine. Radioactivity was determined by scintillation counting using a Beckman LS6000SC (Fullerton, California, USA).
(§3) Data were analysed by iterative curve fitting using Prism software (GraphPad, San Diego, California, USA). Determination of Ki values was performed using the Cheng–Prusoff equation. Values are presented as mean ± SEM, n = 3–6.

[2] = test system: 5-HT3 receptors, transfected HEK293 cells; design: method as in Rojas et al., 2008; conditions: ref Rojas et al., 2008; cited from earlier work
[3] = test system: 5-HT3 receptors, NG108-15 cells; design: method as in Wong et al., 1995; conditions: ref Wong et al., 1995; cited from earlier work
[4] = target: T2, 5-HT3A receptors (Homo sapiens, UniProt P46098); assay: Flexstation membrane potential dye assay, inhibition of 5-HT-induced responses; assay type: cell-based; conditions: for relative Fmax: relative to 0 palonosetron (100%), typical example; for IC50: HEK293 cells
T2 construct: expressed in transfected cells; host or cells: HEK293
T2 sequence (P46098 24-478): T1 sequence (P46098 24-478)
Method: as §1
(§4) Fluorescence was measured in a FLEXstation™ (Molecular Devices Ltd., Wokingham, UK) every 2 s for 200 s using the acquisition software SOFTmax® PRO v4.3.
as §3

[5] = target: T1, 5-HT3AB receptors; assay: as above; assay type: cell-based; conditions: for relative Fmax: relative to 0 palonosetron (100%), typical example; for IC50: palonosetron preincubated 45 min before 5-HT, HEK293 cells
Method: as §1, §4, §3

[6] = target: T2, 5-HT3A receptors; assay: [3H]granisetron competition binding, HEK293 membranes; conditions: displacement of [3H]granisetron
Method: as §1, §2, §3

[7] = target: T1, 5-HT3AB receptors; assay: as above; conditions: displacement of [3H]granisetron
Method: as §1, §2, §3

[8] = target: T2, 5-HT3A receptors; assay: Radioligand association and dissociation kinetics, HEK293 membranes; assay type: binding; design: dissociation k−1 (mean ± S.E.M): unit: h−1
Method: as §1, §2, §3

[9] = target: T3, 5-HT3 receptors expressed in oocytes (Homo sapiens, UniProt P46098); assay: Recovery from palonosetron inhibition after washout in oocytes; assay type: cell-based; conditions: after a 10 min wash; data not shown
T3 sequence (P46098 24-478): T1 sequence (P46098 24-478)

[10] = test system: 5-HT3 receptors; design: method as in Wong et al., 1995; conditions: ref Wong et al., 1995, cited from earlier work
[11] = target: 5-HT3 receptors, human hippocampus; design: method as in Wong et al., 1995; conditions: ref Wong et al., 1995; cited from earlier work
[12] = target: T2, 5-HT3A receptors; assay: [3H]palonosetron saturation binding, HEK293 membranes; conditions: 24 h, 4 °C
Method: as §1, with “Mutagenesis reactions were performed using QuikChange (Agilent Technologies Inc., CA, USA) using human 5-HT3A or 5-HT3B receptor subunit cDNA (accession numbers: P46098 or O95264) in pcDNA3.1 (Invitrogen, Paisley, UK). Subunit numberings have been altered to the aligning residues in the mouse 5-HT3A receptor.” left out
(§5) Briefly, transfected HEK293 cells were washed twice with phosphate buffered saline (PBS) at room temperature and scraped into 1 ml of ice-cold HEPES buffer (10 mM, pH 7.4) containing the following proteinase inhibitors (PI): 1 mM EDTA, 50 μg ml^−1 soybean trypsin inhibitor, 50 μg/ml bacitracin and 0.1 mM phenylmethylsulphonyl fluoride. […] Non-specific binding was determined using 10 μM quipazine. […] Radioactivity was determined by scintillation counting using a Beckman LS6000SC (Fullerton, California, USA).
(§6) Data were analysed by iterative curve fitting using Prism software (GraphPad, San Diego, California, USA). […]

[13] = target: T1, 5-HT3AB receptors; assay: as above; conditions: 24 h, 4 °C
Method: as §1, with “Mutagenesis reactions were performed using QuikChange (Agilent Technologies Inc., CA, USA) using human 5-HT3A or 5-HT3B receptor subunit cDNA (accession numbers: P46098 or O95264) in pcDNA3.1 (Invitrogen, Paisley, UK). Subunit numberings have been altered to the aligning residues in the mouse 5-HT3A receptor.” left out
as §5, §6

[14] = test system: 5-HT3 receptor-expressing HEK293 cells; conditions: cited from earlier work; for [3H]palonosetron remaining: ref Rojas et al., 2010
[15] = agonist-induced dissociation (5-HT or quipazine)
[16] = displacing ligand MDL72222 (1 μM)
[17] = displacing ligand unlabelled palonosetron (100 nM)
[18] = displacing ligand 5-HT (100 μM)
[19] = displacing ligand quipazine (10 μM)

SMILES: O=C1c2cccc3c2[C@H](CCC3)CN1[C@@H]1CN2CCC1CC2 [Palonosetron, palonosetron]
- dissociation t1/2 [1, 15]: > 10 h
- dissociation t1/2 [1, 16]: 1.7 h
- dissociation t1/2 [1, 17]: 1.0 h
- Kd [2]: 0.2 nM
- Kd [3]: 0.05 nM
- relative Fmax ([4]; 0.1 nM palonosetron): 70%
- relative Fmax ([4]; 0.3 nM palonosetron): 40%
- IC50 ([4]; palonosetron co-applied with 5-HT, read-out: IC50): 83 nM
- IC50 ([4]; palonosetron preincubated 45 min before 5-HT, read-out: IC50): 0.24 nM
- IC50 ([4]; palonosetron preincubated 45 min before 5-HT, read-out: pIC50 (converted)): 0.245 nM
- relative Fmax ([5]; 0.1 nM palonosetron): 62%
- relative Fmax ([5]; 0.3 nM palonosetron): 28%
- IC50 ([5]; read-out: IC50): 0.18 nM
- IC50 ([5]; read-out: pIC50 (converted)): 0.186 nM
- IC50 ([6]; 4 °C): 0.6 nM
- Ki ([6]; Cheng–Prusoff): 0.3 nM
- IC50 ([7]; 4 °C): 0.71 nM
- Ki ([7]; Cheng–Prusoff): 0.35 nM
- dissociation t1/2 [8, 15]: > 10 h
- dissociation t1/2 [8, 16]: 2.3 h
- dissociation t1/2 [8, 17]: 1.5 h
- original response recovered after washout [9]: < 10%
- dissociation t½ ([10]; previous studies): 8 to 10 min
- Kd [11]: 0.15 nM

SMILES: O=C1c2cccc3c2[C@H](CCC3)CN1[C@@H]1CN2CCC1CC2 [[^3H]palonosetron]
- association k [1]: 0.35 ± 0.06
- association t1/2 [1]: 2.0 min
- dissociation k−1 (mean ± S.E.M) [1, 18]: 0.057 ± 0.008
- dissociation t1/2 [1, 18]: 12.1 h
- dissociation k−1 (mean ± S.E.M) [1, 16]: 0.41 ± 0.04
- dissociation k−1 (mean ± S.E.M) [1, 19]: 0.068 ± 0.003
- dissociation t1/2 [1, 19]: 10.1 h
- dissociation k−1 (mean ± S.E.M) [1, 17]: 0.68 ± 0.08
- association k [8]: 0.16 ± 0.03
- association t1/2 [8]: 4.1 min
- [3H]palonosetron remaining ([8]; after 2 h dissociation in the presence of MDL72222): 67 ± 7%
- dissociation k−1 (mean ± S.E.M) [8, 18]: 0.032 ± 0.005
- dissociation t1/2 [8, 18]: 21.9 h
- dissociation k−1 (mean ± S.E.M) [8, 16]: 0.29 ± 0.03
- dissociation k−1 (mean ± S.E.M) [8, 19]: 0.056 ± 0.003
- dissociation t1/2 [8, 19]: 12.5 h
- dissociation k−1 (mean ± S.E.M) [8, 17]: 0.44 ± 0.05
- dissociation t1/2 [8, 17]: 1.5 h
- time to complete association ([10]; previously reported): under 10 min
- Kd [12]: 0.34 nM
- Kd [13]: 0.15 nM
- [3H]palonosetron remaining associated ([14]; HEK293 cells after a 2.5 h wash, ref Rojas et al. (2008)): 53 ± 11%
- [3H]palonosetron remaining ([14]; cell-free membrane preparation after a 60 min wash): 2%
- [3H]palonosetron remaining ([14]; cells after a 60 min wash): 65%
